Paper PMC4926070, “Cembranoids from a Chinese Collection of the Soft Coral Lobophytum crassum” (Marine Drugs, 2016)
Read-outs that look alike come from different tables or passages of the source.

Columns and labels:
[1] = Cytotoxicity against mouse peritoneal macrophages; type: cell-based
Protocol: (§1) A previously established protocol was followed except that 30 mM dexamethasone in DMSO was used as the positive control and each test compound (30 mM in DMSO) was diluted to 1–30 μM at r.t. before the experiment.

[2] = tested on: LPS-induced NO production in mouse peritoneal macrophages (PEMФ); test: Inhibition of lipopolysaccharide (LPS)-induced nitric oxide (NO) production; type: cell-based; settings: Peritoneal macrophage, compounds tested at 1–30 μM, read-out: IC50, inhibitory activity against LPS-induced NO production
Protocol: All compounds were tested for their in vitro anti-inflammatory activities. Nitric oxide (NO) is an important signaling molecule that is involved in the regulation of diverse physiological and pathological processes. Overproduction of NO is associated with various human diseases, particularly acute and chronic inflammation, while the level of NO can reflect the degree of inflammation.
as §1

[3] = mouse peritoneal macrophages, read-out: CC50, cytotoxicity against mouse peritoneal macrophages

IC50 [2] [µM] | Compound | CC50 [1, 3] [µM] | CC50 [1] [µM]
17 ± 3 | COC(=O)C1=CCCC2(C)OC2CCC(C(=O)OC)=CC=C(C(C)C)CC1 (stereo not shown) [Compound 1, Locrassumin A] | > 60 | 
13 ± 2 | COC1(C)CC=CC(C)(O)CCC2=C(C)COC2C=C(C)CCC1O (stereo not drawn) [Compound 7, (2R*,7R*,8S*,12S*,1Z,3E,10E)-8-methoxy-2,16-epoxycembra-1(15),3,10-trien-7,12-diol] | > 60 | 
24 ± 2 | CC1=C2CC/C(C)=C/CC[C@@]3(C)O[C@@H]3CC/C(C)=C/[C@H]2OC1=O [Compound 12, ent-sarcophine] |  | > 60
8 ± 1 | COC(=O)/C1=C\CC[C@@]2(C)O[C@@H]2CC/C(C(=O)OC)=C/C=C(/C(C)C)CC1 [Compound 13, sarcophytonolide O] | > 60 | 
12 ± 2 | COC(=O)/C1=C\C=C(\C(C)C)CCC2=CCC[C@](C)(OC2=O)C(=O)CC1 [Compound 17, ketoemblide] | > 60 | 
